In patent publication US20090186838A1, “Amphotericin Derivatives” (Eidgenössische Technische Hochschule Zürich, priority 2006, published 2009):
Converted amounts (≈) assume the structure as drawn. Where two headings read alike, the source gives them in different places.

Legend:
[1] = test system: DSY-565 C. glabrata CI; experiment: MIC determination in Candida strain DSY-565; type: cell-based
Protocol: (§1) In Vitro Antifungal Activity. MIC values for various strains were determined in accordance with the standard protocol from the National Committee of Clinical Laboratory Standards but using YEPD liquid medium instead of RPMI-1640 medium (National Committee of Clinical Laboratory Standards (Reference Method for Broth Dilution Antifungal Susceptibility Testing of Yeast, M27-A2, Approved Standard-Second Edition, Volume 22, Number 15, 1995). AmB was used as a reference. The strains were cultivated overnight in 5 mL YEPD liquid medium at 30 to 37° C. (30° C. for the strain BY4741; 37° C. for the strain DSY1764) with constant shaking. The saturated cultures were diluted to an ODB600 of 0.1 (3×10P^7 cells/mL). Using 24 wells plate, each well was prepared by adding 1% (12 μL) of DMSO solution of the tested polyene macrolide with 1% (12 μL) yeast cells solution and completed with YEPD (1.176 mL). The plates were sealed with Parafilm and then incubated for 18 to 36 hours at 30 to 37° C. (18 hours at 30° C. for the strain BY4741; 36 hours at 37° C. for the strain DSY1764). The optical density was read at 600 nm using 1.5 mL cuvettes. The MIC value was defined as the drug concentration needed to inhibit growth, less than 5% compared to a drug-free culture.
(§2) MIC values of the polyene macrolides 3, 9 and 10 (Diamine-AmB and its ester and diamide derivative, respectively) in various Candida strains including an AmB-resistant strain C. albicans (DSY1764, with the genotype erg3AΔ::hisG/erg3BΔ::hisG erg11Δ::hisG/erg11Δ::hisG-URA3-hisG) were determined.

[2] = test system: CAF2-1 C. albican wt; experiment: MIC determination in Candida strain CAF2-1; type: cell-based, Candida albicans
Protocol: as §1, §2

[3] = test system: human erythrocytes; experiment: Hemolytic assay (EH50); type: cell-based; conditions: concentration that led to 50% hemolysis of human erythrocytes; one hour at 37° C.
Protocol: Hemolytic Assay. The hemotoxicity of the polyene macrolide derivatives of the invention was determined by measuring the toxicity towards human erythrocytes (EH50 value) using an established assay (Kinsky, S. C. et al., Biochem. Biophys. Res. Comm. 1962, 9, 503). Human blood, anticoagulated with citrate or EDTA, was centrifuged (2000×g) at 4° C. for 10 minutes. The pellets were washed three times with PBS buffer (pH 7.2 with 2 g/L glucose) and then diluted to a concentration of 4% (4×10^8 cells/mL). All experiments were done in triplo and the total volume for the hemolysis tubes was 1.4 ml. The solutions were prepared by adding 1% (14 μL) of DMSO solution of the tested compound with […] of PBS buffer and completed with 750 μL of 4% erythrocytes. After one hour incubation at 37° C., the samples were centrifuged (1500×g) at 4° C. for 5 min and the absorbance of the supernatant was measured at 560 nm. The concentration that led to 50% hemolysis (EH50) was intrapolated graphically. The value for the 100% hemolysis was obtained by the treatment with 100 μM of AmB.
The toxicity of AmB (1a) and the polyene macrolides 3, 9 and 10 towards human erythrocytes was examined using the above described hemolysis assay (Table 3).

[4] = test system: DSY-654 C. albican mutant cdr1/2; experiment: MIC determination in Candida strain DSY-654; type: cell-based, Candida albicans
Protocol: as §1, §2

[5] = Solubility assay; type: physicochemical; conditions: DMSO stock added to PBS buffer solution pH 7.2; precipitation point by light scattering at 600 nm
Protocol: Solubility assay. The solubility assay was performed according to Lipinski, C. A. et al Advances Drug Delivery Reviews 2001, 46, 3-26. Typically, a compound of the invention was dissolved in DMSO at a concentration of 10 μg/μl. The so obtained solution was added in […] at 1 min intervals to 2.5 ml PBS buffer solution pH 7.2. These additions correspond to solubility increments of 5 μg/ml to a top value of 65 μg/ml. A total of 14 additions were made and each time increased UV absorbance from light scattering was measured at 600 nm. The precipitation point was calculated from a bilinear curve fit to the Absorbance (y axis) versus μl of DMSO (x axis) plot.
The solubility of the polyene macrolides of the invention in water was tested following the above described protocol. Clearly, all conjugates were more soluble in water then AmB.

[6] = test system: DSY-296 C. albican CI; experiment: MIC determination in Candida strain DSY-296; type: cell-based, Candida albicans; conditions: DSY-296 C. albican CI
Protocol: as §1, §2

[7] = test system: DSY-562 C. glabrata CI; experiment: MIC determination in Candida strain DSY-562; type: cell-based
Protocol: as §1, §2

[8] = test system: DSY-1751 C. albican mutant erg3; experiment: MIC determination in Candida strain DSY-1751; type: cell-based, Candida albicans
Protocol: as §1, §2

[9] = test system: DSY-1764 C. albican mutant erg3/11 (AmB-resistant strain); experiment: MIC determination in AmB-resistant Candida strain DSY-1764; type: cell-based, Candida albicans
Protocol: as §1, §2

[10] = test system: Saccharomyces cerevisiae wild type BY4741; experiment: MIC determination in Saccharomyces cerevisiae wild type BY4741; type: cell-based; conditions: read-out: MIC
Protocol: as §1
MIC values of various polyene macrolides of the invention in Saccharomyces cerevisiae wild type BY4741, a derivative of S288C, (with AmB as a reference) were determined as described hereinabove.
Based on the remarkable performance observed with the Diamine-AmB conjugate similar modifications of the aminosugar moiety were made on other polyene macrolides, such as for example Nystatin (1b) and Pimaricin (1c). The antifungal activity of these nystatin and pimaricin conjugates bearing two aminopropyl side chains was measured using Saccharomyces cerevisiae wild type BY4741.

[11] = test system: DSY-294 C. albican CI; experiment: MIC determination in Candida strain DSY-294; type: cell-based, Candida albicans
Protocol: as §1, §2

[12] = Saccharomyces cerevisiae wild type BY4741, YEPD liquid medium, 18 hours at 30° C.

Compound | MIC ([1]; DSY-565 C. glabrata CI) | MIC [2] | EH50 [3] | MIC ([4]; DSY-654 C. albican mutant cdr1/2) | Solubility in water [5] | MIC [6] | MIC [7] | MIC ([8]; DSY-1751 C. albican mutant erg3) | MIC ([9]; DSY-1764 C. albican mutant erg3/11, AmB-resistant, 36 hours at 37° C.) | MIC [10, 12] | MIC ([10]; Table 3, strain not given, values as in Table 1 (S. cerevisiae BY4741)) | MIC [11] | MIC ([1]; Nakaseomyces glabratus) | MIC ([2]; Candida albicans) | MIC ([4]; Candida albicans) | MIC ([7]; Nakaseomyces glabratus) | MIC ([8]; Candida albicans) | MIC ([9]; Candida albicans, 36 h)
C[C@@H]1[C@H](O)[C@@H](C)/C=C/C=C/C=C/C=C/C=C/C=C/C=C/[C@H](O[C@@H]2O[C@H](C)[C@@H](O)[C@H](N)[C@@H]2O)C[C@@H]2O[C@](O)(C[C@@H](O)C[C@@H](O)[C@H](O)CC[C@@H](O)C[C@@H](O)CC(=O)O[C@H]1C)C[C@H](O)[C@H]2C(=O)O [AmB, Amphotericin B, reference compound] | 0.50 µM (≈ 0.462 µg/mL) | 0.30 µM (≈ 0.277 µg/mL) | 4.0 µM | 0.50 µM (≈ 0.462 µg/mL) | 10 µg/mL (≈ 10.8 µM) | 0.40 µM (≈ 0.37 µg/mL) | 0.50 µM (≈ 0.462 µg/mL) | 0.30 µM (≈ 0.277 µg/mL) | 50 µM (≈ 46.2 µg/mL) | 0.3 µM (≈ 0.277 µg/mL) | 0.30 µM (≈ 0.277 µg/mL) | 0.40 µM (≈ 0.37 µg/mL) | – | – | – | – | – | –
C[C@@H]1[C@H](O)[C@@H](C)/C=C/C=C/C=C/C=C/C=C/C=C/C=C/[C@H](O[C@@H]2O[C@H](C)[C@@H](O)[C@H](N(CCCN)CCCN)[C@@H]2O)CC2O[C@](O)(C[C@@H](O)C[C@@H](O)[C@H](O)CC[C@@H](O)C[C@@H](O)CC(=O)O[C@H]1C)C[C@H](O)[C@H]2C(=O)N1CCN(C)CC1 [compound 12, 16-(N′-(1-Methylpiperazinyl)carboxamide)-N,N-di-(3-aminopropyl)-AmB] | – | – | – | – | – | – | – | – | – | 0.2 µM (≈ 0.224 µg/mL) | – | – | 0.2 µM (≈ 0.224 µg/mL) | 0.3 µM (≈ 0.336 µg/mL) | 0.4 µM (≈ 0.448 µg/mL) | 0.3 µM (≈ 0.336 µg/mL) | 0.4 µM (≈ 0.448 µg/mL) | 1 µM (≈ 1.12 µg/mL)
